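Protocol summary: plate cells (96-well), add compound at 5 concentrations, incubate 48 h, interpolate endpoints linearly. The concentration for full growth arrest is given as TGI.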
Columns and labels:
Assay in all cases: DTP human tumour cell line panel, 48 h
[1] = system: UACC-257 melanoma
[2] = system: UACC-62 melanoma
[3] = system: HCT-116 colon
[4] = system: HCC-2998 colon
[5] = system: SK-MEL-2 melanoma
[6] = system: OVCAR-3 ovarian
[7] = system: SK-MEL-28 melanoma
[8] = system: SW-620 colon
[9] = system: MALME-3M melanoma
[10] = system: RXF 393 renal
[11] = system: HL-60(TB) leukemia
[12] = system: SF-295 CNS
[13] = system: NCI-H460 lung
[14] = system: NCI/ADR-RES ovarian
[15] = system: SR leukemia
[16] = system: SN12C renal
[17] = system: CAKI-1 renal
[18] = system: T-47D breast

Structure (SMILES)	TGI [1]	TGI [2]	TGI [3]	TGI [4]	TGI [5]	TGI [6]	TGI [7]	TGI [8]	TGI [9]	TGI [10]	TGI [11]	TGI [12]	TGI [13]	TGI [14]	TGI [15]	TGI [16]	TGI [17]	TGI [18]
C/C(CC(=O)Nc1cc(C)ccc1C)=N\NC(=O)c1ccncc1	> 100 µM	> 100 µM	> 100 µM	> 100 µM	> 100 µM	> 100 µM	> 100 µM	> 100 µM	> 100 µM	> 100 µM	> 100 µM	> 100 µM	> 100 µM					
CCOCc1c(C)cc(C)c(C2C(C(=O)c3ccccc3)N3c4ccccc4C=CC3C2(C#N)C(=O)OCC)c1C (stereo not drawn)	> 100 µM	> 100 µM	> 100 µM	47.8 µM		> 100 µM	> 100 µM	> 100 µM		> 100 µM	> 100 µM	> 100 µM	> 100 µM	> 100 µM	> 100 µM	> 100 µM	> 100 µM	
O/N=C/c1ncccc1C1OCCO1	> 100 µM	> 100 µM	> 100 µM		> 100 µM	> 100 µM	> 100 µM	> 100 µM	> 100 µM	> 100 µM	> 100 µM	> 100 µM	> 100 µM		> 100 µM	> 100 µM	> 100 µM	
Cc1ccc(S(=O)(=O)c2ccsc2NC(=O)C(F)(F)F)cc1	> 100 µM	> 100 µM	95.3 µM	> 100 µM	94.7 µM	> 100 µM	> 100 µM	> 100 µM	> 100 µM			> 100 µM	> 100 µM	> 100 µM		66.8 µM	82.6 µM	> 100 µM
Cc1ccc(NC(=O)CC(=O)n2nc(C)c(N=Nc3ccccc3C(=O)O)c2C)cc1	> 100 µM	> 100 µM	> 100 µM	> 100 µM	> 100 µM	> 100 µM	> 100 µM	> 100 µM	> 100 µM		> 100 µM	> 100 µM	> 100 µM			> 100 µM	> 100 µM	
Nc1nc(I)nc2c1ncn2C1OC(COS(N)(=O)=O)C(O)C1O (stereo not drawn)	0.0716 µM	0.0606 µM	0.0534 µM	0.0311 µM	0.0107 µM	0.012 µM	0.0148 µM	0.165 µM	< 0.01 µM	0.0441 µM		0.168 µM	0.108 µM	< 0.0125 µM	< 0.01 µM	0.032 µM	0.129 µM	
O=C(NC12CC3CC(CC(F)(C3)C1)C2)c1ccccc1	> 100 µM	> 100 µM	> 100 µM	> 100 µM	> 100 µM	> 100 µM	> 100 µM	> 100 µM	> 100 µM	> 100 µM	> 100 µM		> 100 µM					
O=C1c2ccccc2C(=O)c2c1cc(S(=O)(=O)O)c(O)c2O	> 100 µM	> 100 µM	> 100 µM	> 100 µM	> 100 µM	> 100 µM	> 100 µM	> 100 µM		> 100 µM		> 100 µM	> 100 µM		> 100 µM	> 100 µM	> 100 µM	
COc1ccc(/C=C2\CCC(C)C3C2=NN(c2ccccc2)C3c2ccc(OC)c(OC)c2)cc1OC (stereo not drawn)	9.74 µM	12.2 µM	5.5 µM		7.87 µM	> 100 µM	31.6 µM	> 100 µM	16.7 µM	16.3 µM	7.07 µM	7.55 µM		18.3 µM		17.6 µM	15.6 µM	9.08 µM
Nc1nc(Cl)c(CO)c(NCC2(CO)CC(CCc3ccccc3)C2)n1 (stereo not drawn)	32.4 µM		31.9 µM	> 100 µM		63.1 µM	47 µM	54.2 µM	42.5 µM	63 µM	28.9 µM	> 100 µM	56.9 µM	73.8 µM	> 100 µM	> 100 µM	> 100 µM	
NC(=S)N1N=C2c3ccccc3CC[C@@H]2[C@@H]1c1ccccc1	56.3 µM	26.1 µM	19.1 µM	> 55.7 µM	> 48.5 µM	12.7 µM		> 59.3 µM	66.7 µM	41.5 µM	10.5 µM	> 42.2 µM	> 42.2 µM		12.6 µM	17.3 µM	42.2 µM	
CC1OC(OC2C(OC(=O)[C@]34CCC(C)(C)CC3C3=CCC5[C@@]6(C)C[C@H](O)[C@H](OC7OC(CO)C(O)C(O)C7N)[C@@](C)(C(=O)O)C6CC[C@@]5(C)C3(C)CC4)OCC(O)C2O)C(O)C(O)C1OC1OCC(O)C(O)C1O (stereo partly drawn)	> 100 µM	> 100 µM		> 100 µM	> 100 µM	> 100 µM	> 100 µM	> 100 µM	> 100 µM	> 100 µM	> 100 µM	> 100 µM	> 100 µM			> 100 µM	> 100 µM	
